Columns and labels:
Assay in all cases: selective drug sensitivity score (sDSS, relative to normal bone marrow) (sDSS (score)); higher = more potent and effective on the cell line relative to normal bone marrow cells
Details in all cases: 72 h
[1] = test system: P30-OHKUBO
[2] = test system: COG-LL-394h
[3] = test system: KARPAS-45
[4] = test system: MN-60
[5] = test system: REH
[6] = test system: RPMI-8402
[7] = test system: P12-ICHIKAWA
[8] = test system: NALM-6
[9] = test system: DND-41
[10] = test system: NALL-1
[11] = test system: 380
[12] = test system: ALL-SIL
[13] = test system: PEER
[14] = test system: PF-382
[15] = test system: COG-LL-319h
[16] = test system: CCRF-CEM
[17] = test system: MOLT-14
[18] = test system: JURKAT
[19] = test system: TANOUE
[20] = test system: MHH-CALL-3
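Note: ALL cell lines in 384-well plates, five doses spanning 10,000-fold, each plate scaled between vehicle and 100 µmol/L benzalkonium chloride controls, sDSS an adapted area-under-curve metric.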

## COc1cc2ncnc(Nc3cccc(Cl)c3F)c2cc1OC(=O)N1CCN(C)C[C@H]1C [AZD3759] (top concentration 1000 nM)
[1]
  selective drug sensitivity score: -0.04
[2]
  selective drug sensitivity score: -0.04
[3]
  selective drug sensitivity score: -0.04
[4]
  selective drug sensitivity score: -0.04
[5]
  selective drug sensitivity score: 0.66
[6]
  selective drug sensitivity score: -0.04
[7]
  selective drug sensitivity score: -0.04
[8]
  selective drug sensitivity score: -0.04
[9]
  selective drug sensitivity score: -0.04
[10]
  selective drug sensitivity score: 0.86
[11]
  selective drug sensitivity score: -0.04
[12]
  selective drug sensitivity score: 5.76
[13]
  selective drug sensitivity score: -0.04
[14]
  selective drug sensitivity score: -0.04
[15]
  selective drug sensitivity score: 0.96
[16]
  selective drug sensitivity score: -0.04
[17]
  selective drug sensitivity score: -0.04
[18]
  selective drug sensitivity score: -0.04
[19]
  selective drug sensitivity score: -0.04
[20]
  selective drug sensitivity score: -0.04

## C[C@]12CC[C@H](O)CC1=CC[C@@H]1[C@@H]2CC[C@]2(C)C(c3cccnc3)=CC[C@@H]12 [Abiraterone] (top concentration 5000 nM)
[1]
  selective drug sensitivity score: 1.48
[2]
  selective drug sensitivity score: -0.12
[3]
  selective drug sensitivity score: -0.12
[4]
  selective drug sensitivity score: -0.12
[5]
  selective drug sensitivity score: -0.12
[6]
  selective drug sensitivity score: -0.12
[7]
  selective drug sensitivity score: -0.12
[8]
  selective drug sensitivity score: -0.12
[9]
  selective drug sensitivity score: -0.12
[10]
  selective drug sensitivity score: 3.08
[11]
  selective drug sensitivity score: 0.58
[12]
  selective drug sensitivity score: -0.12
[13]
  selective drug sensitivity score: -0.12
[14]
  selective drug sensitivity score: -0.12
[15]
  selective drug sensitivity score: 0.08
[16]
  selective drug sensitivity score: -0.12
[17]
  selective drug sensitivity score: -0.12
[18]
  selective drug sensitivity score: 0.18
[19]
  selective drug sensitivity score: -0.12
[20]
  selective drug sensitivity score: -0.12

## CC#CC(=O)N1CCC[C@H]1c1nc(-c2ccc(C(=O)Nc3ccccn3)cc2)c2c(N)nccn12 [Acalabrutinib] (top concentration 1000 nM)
[1]
  selective drug sensitivity score: 1.3
[2]
  selective drug sensitivity score: -0.1
[3]
  selective drug sensitivity score: 0.7
[4]
  selective drug sensitivity score: -0.1
[5]
  selective drug sensitivity score: -0.1
[6]
  selective drug sensitivity score: -0.1
[7]
  selective drug sensitivity score: -0.1
[8]
  selective drug sensitivity score: -0.1
[9]
  selective drug sensitivity score: -0.1
[10]
  selective drug sensitivity score: -0.1
[11]
  selective drug sensitivity score: 9.6
[12]
  selective drug sensitivity score: -0.1
[13]
  selective drug sensitivity score: -0.1
[14]
  selective drug sensitivity score: 0
[15]
  selective drug sensitivity score: 0
[16]
  selective drug sensitivity score: 0.8
[17]
  selective drug sensitivity score: -0.1
[18]
  selective drug sensitivity score: 0
[19]
  selective drug sensitivity score: -0.1
[20]
  selective drug sensitivity score: 0

## CCc1cc2c(cc1N1CCC(N3CCOCC3)CC1)C(C)(C)c1[nH]c3cc(C#N)ccc3c1C2=O [Alectinib] (top concentration 1000 nM)
[1]
  selective drug sensitivity score: 1.68
[2]
  selective drug sensitivity score: 2.58
[3]
  selective drug sensitivity score: 1.28
[4]
  selective drug sensitivity score: 0.98
[5]
  selective drug sensitivity score: -0.02
[6]
  selective drug sensitivity score: 2.08
[7]
  selective drug sensitivity score: -0.22
[8]
  selective drug sensitivity score: 1.28
[9]
  selective drug sensitivity score: 0.08
[10]
  selective drug sensitivity score: -0.22
[11]
  selective drug sensitivity score: 0.38
[12]
  selective drug sensitivity score: -0.22
[13]
  selective drug sensitivity score: 0.78
[14]
  selective drug sensitivity score: -0.22
[15]
  selective drug sensitivity score: 2.48
[16]
  selective drug sensitivity score: 0.18
[17]
  selective drug sensitivity score: 1.08
[18]
  selective drug sensitivity score: -0.22
[19]
  selective drug sensitivity score: -0.22
[20]
  selective drug sensitivity score: -0.22

## Oc1ncnc2[nH]ncc12 [Allopurinol] (top concentration 10000 nM)
[1]
  selective drug sensitivity score: 0.96
[2]
  selective drug sensitivity score: -0.64
[3]
  selective drug sensitivity score: -0.24
[4]
  selective drug sensitivity score: -0.64
[5]
  selective drug sensitivity score: -0.64
[6]
  selective drug sensitivity score: -0.64
[7]
  selective drug sensitivity score: -0.64
[8]
  selective drug sensitivity score: -0.04
[9]
  selective drug sensitivity score: -0.64
[10]
  selective drug sensitivity score: -0.64
[11]
  selective drug sensitivity score: -0.64
[12]
  selective drug sensitivity score: -0.14
[13]
  selective drug sensitivity score: -0.64
[14]
  selective drug sensitivity score: -0.64
[15]
  selective drug sensitivity score: 3.56
[16]
  selective drug sensitivity score: -0.24
[17]
  selective drug sensitivity score: -0.64
[18]
  selective drug sensitivity score: -0.64
[19]
  selective drug sensitivity score: -0.64
[20]
  selective drug sensitivity score: -0.64

## COc1cc(NS(C)(=O)=O)ccc1Nc1c2ccccc2nc2ccccc12 [Amsacrine] (top concentration 10000 nM)
[1]
  selective drug sensitivity score: 13
[2]
  selective drug sensitivity score: 8.26
[3]
  selective drug sensitivity score: 1.76
[4]
  selective drug sensitivity score: -1.84
[5]
  selective drug sensitivity score: 19.1
[6]
  selective drug sensitivity score: 14.4
[7]
  selective drug sensitivity score: 13.5
[8]
  selective drug sensitivity score: 10.7
[9]
  selective drug sensitivity score: 4.16
[10]
  selective drug sensitivity score: 5.66
[11]
  selective drug sensitivity score: 23.2
[12]
  selective drug sensitivity score: 10.2
[13]
  selective drug sensitivity score: 3.16
[14]
  selective drug sensitivity score: 10.9
[15]
  selective drug sensitivity score: 18.2
[16]
  selective drug sensitivity score: 15.1
[17]
  selective drug sensitivity score: 18.8
[18]
  selective drug sensitivity score: 7.96
[19]
  selective drug sensitivity score: -11.2
[20]
  selective drug sensitivity score: 23.5

## O=C1CN2Cc3c(ccc(Cl)c3Cl)N=C2N1 [Anagrelide] (top concentration 10000 nM)
[1]
  selective drug sensitivity score: 0
[2]
  selective drug sensitivity score: 0
[3]
  selective drug sensitivity score: 0
[4]
  selective drug sensitivity score: 0
[5]
  selective drug sensitivity score: 0
[6]
  selective drug sensitivity score: 0
[7]
  selective drug sensitivity score: 0
[8]
  selective drug sensitivity score: 0
[9]
  selective drug sensitivity score: 0
[10]
  selective drug sensitivity score: 1.1
[11]
  selective drug sensitivity score: 0.1
[12]
  selective drug sensitivity score: 2.8
[13]
  selective drug sensitivity score: 0
[14]
  selective drug sensitivity score: 0
[15]
  selective drug sensitivity score: 0
[16]
  selective drug sensitivity score: 0
[17]
  selective drug sensitivity score: 0
[18]
  selective drug sensitivity score: 0
[19]
  selective drug sensitivity score: 0
[20]
  selective drug sensitivity score: 0

## N#CC(c1ccnc(OCc2ccc(CN3CCOCC3)cc2)n1)c1nc2ccccc2s1 (stereo not given) [Bentamapimod] (top concentration 10000 nM)
[1]
  selective drug sensitivity score: 5.34
[2]
  selective drug sensitivity score: 3.44
[3]
  selective drug sensitivity score: 5.54
[4]
  selective drug sensitivity score: 2.44
[5]
  selective drug sensitivity score: 6.54
[6]
  selective drug sensitivity score: 4.94
[7]
  selective drug sensitivity score: 2.94
[8]
  selective drug sensitivity score: 2.44
[9]
  selective drug sensitivity score: 3.64
[10]
  selective drug sensitivity score: 1.14
[11]
  selective drug sensitivity score: -0.46
[12]
  selective drug sensitivity score: 2.34
[13]
  selective drug sensitivity score: 5.64
[14]
  selective drug sensitivity score: 3.84
[15]
  selective drug sensitivity score: -0.06
[16]
  selective drug sensitivity score: 3.94
[17]
  selective drug sensitivity score: 2.74
[18]
  selective drug sensitivity score: 3.94
[19]
  selective drug sensitivity score: 0.84
[20]
  selective drug sensitivity score: -0.46

## CCNC(=O)CCC/C=C\C[C@@H]1[C@@H](/C=C/[C@@H](O)CCc2ccccc2)[C@H](O)C[C@@H]1O [Bimatoprost] (top concentration 5500 nM)
[1]
  selective drug sensitivity score: 0
[2]
  selective drug sensitivity score: 0
[3]
  selective drug sensitivity score: 0
[4]
  selective drug sensitivity score: 0
[5]
  selective drug sensitivity score: 1.4
[6]
  selective drug sensitivity score: 0
[7]
  selective drug sensitivity score: 0
[8]
  selective drug sensitivity score: 0
[9]
  selective drug sensitivity score: 5.6
[10]
  selective drug sensitivity score: 0
[11]
  selective drug sensitivity score: 0
[12]
  selective drug sensitivity score: 0
[13]
  selective drug sensitivity score: 0
[14]
  selective drug sensitivity score: 0
[15]
  selective drug sensitivity score: 0
[16]
  selective drug sensitivity score: 0
[17]
  selective drug sensitivity score: 0
[18]
  selective drug sensitivity score: 0
[19]
  selective drug sensitivity score: 0
[20]
  selective drug sensitivity score: 0

## COc1cc(C)[nH]c(=O)c1CNC(=O)c1c(C)n([C@H](C)C2CCOCC2)c2ccccc12 [CPI-360] (top concentration 10000 nM)
[1]
  selective drug sensitivity score: 1.8
[2]
  selective drug sensitivity score: 0
[3]
  selective drug sensitivity score: 0
[4]
  selective drug sensitivity score: 0
[5]
  selective drug sensitivity score: 0
[6]
  selective drug sensitivity score: 0
[7]
  selective drug sensitivity score: 0
[8]
  selective drug sensitivity score: 0
[9]
  selective drug sensitivity score: 0
[10]
  selective drug sensitivity score: 0
[11]
  selective drug sensitivity score: 5.1
[12]
  selective drug sensitivity score: 0
[13]
  selective drug sensitivity score: 0
[14]
  selective drug sensitivity score: 0
[15]
  selective drug sensitivity score: 0
[16]
  selective drug sensitivity score: 0
[17]
  selective drug sensitivity score: 0
[18]
  selective drug sensitivity score: 0.1
[19]
  selective drug sensitivity score: 0
[20]
  selective drug sensitivity score: 0
